In the assay the target is T1, HtL1/FBA10 (HtL1-GST) (Triticum aestivum, UniProt A0A1D5VE13).
T1 construct: gene LOC123071650; class I aldolase, homotetramer only predicted (SWISS-MODEL); cytosolic
T1 sequence (A0A1D5VE13 1-358): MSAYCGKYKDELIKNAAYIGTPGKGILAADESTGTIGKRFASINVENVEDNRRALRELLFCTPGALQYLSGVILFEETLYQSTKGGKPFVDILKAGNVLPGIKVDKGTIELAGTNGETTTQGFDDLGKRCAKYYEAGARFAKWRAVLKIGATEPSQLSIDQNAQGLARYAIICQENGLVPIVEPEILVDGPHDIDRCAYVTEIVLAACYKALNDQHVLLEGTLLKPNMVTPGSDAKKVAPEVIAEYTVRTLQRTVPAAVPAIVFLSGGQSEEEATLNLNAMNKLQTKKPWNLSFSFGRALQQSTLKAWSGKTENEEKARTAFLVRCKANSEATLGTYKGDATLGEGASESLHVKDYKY
Put plainly: fructose-1,6-bisphosphate aldolase activity assay kit, microplate reader; enzyme kinetic curve. It is filed as biochemical. To be noted: GST fusion protein; no constant in text; kinetic curve only in figure.

The structures appear in SMILES notation.

In the case of `O=P(O)(O)OC[C@H]1OC(O)(COP(=O)(O)O)[C@@H](O)[C@@H]1O` (stereo partly shown) [FBP, fructose 1,6-bisphosphate], the “fructose-1,6-bisphosphate aldolase activity assay kit, microplate reader; enzyme” value was “Enzyme kinetic curves and activity assays collectively demonstrated that HtL1 exhibits fructose-bisphosphate aldolase activity”.

The values are drawn from paper PMC12848038, “O-GlcNAc and phosphorylation modifications on HtL1/FBA10 regulate wheat vernalization for flowering” (Nature Communications, 2025).
